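A five-concentration, 48-hour dose response in 96-well plates underlies each endpoint, interpolated linearly between surrounding concentrations. TGI denotes the concentration required for complete inhibition of growth.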
What was measured:
Assay in all cases: NCI-60 cell line screen, 48 h
A549 NSCLC = test system: A549 NSCLC
DMS 114 small cell lung = test system: DMS 114 small cell lung
KM20L2 colon = test system: KM20L2 colon
M19-MEL melanoma = test system: M19-MEL melanoma
NCI-H226 lung = test system: NCI-H226 lung
NCI-H23 lung = test system: NCI-H23 lung
OVCAR-5 ovarian = test system: OVCAR-5 ovarian
OVCAR-8 ovarian = test system: OVCAR-8 ovarian
SNB-75 CNS = test system: SNB-75 CNS
U251 CNS = test system: U251 CNS

Structure (SMILES) | TGI (A549 NSCLC) | TGI (DMS 114 small cell lung) | TGI (KM20L2 colon) | TGI (M19-MEL melanoma) | TGI (NCI-H226 lung) | TGI (NCI-H23 lung) | TGI (OVCAR-5 ovarian) | TGI (OVCAR-8 ovarian) | TGI (SNB-75 CNS) | TGI (U251 CNS)
COc1cc2cc(OC)c3cc4c(cc3c2c(OC)c1OC)OCO4 | > 95.8 µM | > 100 µM | 53.5 µM | 48.8 µM | > 100 µM | > 81.2 µM | 90.9 µM | > 100 µM | > 46.1 µM | > 59.3 µM
O=C(O)CCC(NC(=O)c1ccc(Nc2nc3ccccc3nc2-c2cccs2)cc1)C(=O)O (stereo not given) | > 100 µM | > 100 µM | > 100 µM | > 100 µM | > 100 µM | > 100 µM | > 100 µM | > 100 µM | > 100 µM | > 100 µM
O=C(O)CCNCCCNCCC(=O)O | > 100 µM | > 100 µM | > 100 µM | > 100 µM | > 100 µM | > 100 µM | > 100 µM | > 100 µM | > 100 µM | > 100 µM
Cc1cnc(NCCCN(C)C)c2c1[nH]c1ccc3cc(O)ccc3c12 | 2.5 µM | 0.993 µM | 2.29 µM | 1.25 µM | 1.73 µM | 2.04 µM | 3.95 µM | 1.96 µM | 1.87 µM | 1.02 µM
CC1(C(=O)O)CCC[C@@]2(C)C1CC[C@@]1(C)c3cocc3CCC21 (stereo not given in full) | > 100 µM | > 100 µM | > 100 µM | > 100 µM | > 100 µM | > 100 µM | > 100 µM | > 100 µM | > 100 µM | > 100 µM

Reference: PubChem BioAssay (NCI)
